These results are taken from patent US20210251226A1, “METHOD AND COMPOSITION FOR INHIBITING THE GROWTH OF PSEUDOMONAS SYRINGAE ON A PLANT MATERIAL, AND KIT FOR TREATING THE SAME” (City University of Hong Kong, priority 2020, published 2021).

In data set [1] the test system is P. syringae. The note with it: conventional agent, comparison; cited from earlier work.
The subject of data set [2] is hrpL. The data set can be described thus: hrpL-lux activity (hrpL expression) in wild-type P. syringae. The data set is classed as cell-based. The note with it: 1 mM of each salt. The procedure:
To study the inhibitory effect of different acetate salts to inhibit P. syringae, 1 mM of 12 acetate salts was tested on the expression of hrpL, namely on hrpL-lux activities, in the wild-type P. syringae. The 12 acetate salts included acetate salts of lithium (Li), potassium (K), magnesium (Mg), sodium (Na), calcium (Ca), manganese (Mn), aluminium (Al), nickel (Ni), acetic acid (denoted as HAc), copper (Cu), ammonium (NH4), and iron (Fe).

Data set [3] deals with P. syringae. The data set can be described thus: Toxicity to P. syringae liquid culture (CFU count). As to conditions: liquid culture treated 2 hours. The procedure:
To study whether the optimized NaAc recipe is toxic to P. syringae, a P. syringae liquid culture was treated with 0.1 mM FeAc, 100 mM NaAc, and the optimized recipe (1 mM NaAc and 0.1 mM FeAc) respectively for 2 hours. The treated and control (untreated) cultures were then diluted for counting bacterial CFUs.

Data set [4] relates to wild-type P. syringae pv. tomato. The note with it: 6 day post inoculation. The procedure:
To study the effect of concentration of NaAc on inhibiting growth of P. syringae, 2×10^4 CFU/ml of wild-type P. syringae pv. tomato bacteria were injected into the tomato leaves. Then, the inoculated leaves were sprayed with water and 0.1-100 mM NaAc. Three 1 cm^2 leaf disks at 6 day post inoculation were homogenated and diluted in water to count bacterial CFUs.

Data set [5] concerns wild-type P. syringae.
Data set [6] concerns bean leaf. The data set can be described thus: Toxicity to host plant leaves after injection. The procedure: Furthermore, to study whether the optimized NaAc recipe is toxic to a host plant, aqueous solutions of 0.1 mM FeAc, 100 mM NaAc, and the optimized recipe (1 mM NaAc and 0.1 mM FeAc) were respectively injected into tomato and bean leaves and inoculated for 6 days.
In data set [7] the test system is wild-type P. syringae. The note with it: 10 mM NaAc, 6 days after inoculation, 2×10^4 CFU/ml.

SMILES strings stand for the structures.

As for `[H]/N=C(/N)N[C@H]1[C@H](O)[C@@H](O)[C@H](O[C@@H]2O[C@@H](C)[C@](O)(C=O)[C@H]2O[C@@H]2O[C@@H](CO)[C@H](O)[C@@H](O)[C@@H]2NC)[C@@H](N/C(N)=N\[H])[C@@H]1O` [streptomycin], the “minimum inhibitory concentration (MIC)” value in data set [1] was 1000 µg/mL.
With `CC(=O)[O-].CC(=O)[O-].[Fe+2]` [iron acetate], the “inhibitory effect on hrpL-lux activities, rank among 12 acetate salts” value in data set [2] is “best inhibitory effect”.
For `O=S(=O)([O-])[O-].[Cu+2]` [copper sulfate], in data set [1], the “minimum inhibitory concentration (MIC)” value was 3000 µM.
Regarding `CC(=O)[O-].[Na+]` [NaAc, sodium acetate], in data set [3], the “toxicity to P. syringae” value is on record as “not toxic”. In addition, the “difference in bacterial CFU between water control and NaAc spray” value in data set [4] (tomato leaf, 0.1-100 mM spray, P<0.05) is on record as “significant”. Further, the “best concentration for reducing bacterial growth” value in data set [4] (tomato, of concentrations from 0.1 mM to 100 mM) is given as 100 mM. In addition, in data set [5] (10 mM NaAc, 6 days after inoculation, 2×10^4 CFU/ml), the “bacterial pathogenicity (disease symptoms) on tomato leaf” value was “significantly reduced bacterial pathogenicity”. For the same compound, the “concentration removing infection symptom” value in data set [5] (host plant not named at this place) was 10 mM. In data set [6] (injected into leaf, 6 days), the “toxicity to host plant leaf” value is “not toxic”. In data set [6] (plant), the “toxicity or resistance on plant” value is “no toxicity or resistance on plant”. Moreover, in data set [7], the “bacterial pathogenicity (disease symptoms) on bean leaf” value is on record as “significantly reduced bacterial pathogenicity”.
